Source: patent US9708318B2, “Bicyclic heterocycles as FGFR4 inhibitors” (Incyte Corporation, priority 2015, dated 2017)
Read-outs that look alike come from different tables or passages of the source.

What was measured:
[1] = target: FGFR2 (Homo sapiens (Human), UniProt P21802); test: FGFR Enzymatic Assay (FRET peptide phosphorylation), FGFR2; type: biochemical
Method: (§1) The inhibitor potency of the exemplified compounds was measured in an enzyme assay that measures peptide phosphorylation using FRET measurements to detect product formation. Inhibitors were serially diluted in DMSO and a volume of 0.5 μL was transferred to the wells of a 384-well plate.
(§2) The enzymes were purchased from Millipore or Invitrogen.
(§3) GraphPad prism3 was used to analyze the data.

[2] = target: FGFR3 enzyme (Homo sapiens (Human), UniProt P22607); test: FGFR Enzymatic Assay (FRET peptide phosphorylation), FGFR3; type: biochemical; details: for FGFR1/FGFR3 IC50 ratio / FGFR4/FGFR3 IC50 ratio: FGFR3 selectivity; for IC50: read-out: FGFR3 IC50
Method: as §1, §3

[3] = target: FGFR4 (Homo sapiens (Human), UniProt P22455); test: FGFR Enzymatic Assay (FRET peptide phosphorylation), FGFR4; type: biochemical
Method: as §1, §2, §3

[4] = target: FGFR1 (Homo sapiens (Human), UniProt P11362); test: FGFR Enzymatic Assay (FRET peptide phosphorylation), FGFR1
[5] = FGFR1 IC50 (nM), pre-incubated for 4 hours
[6] = pre-incubated for 5 to 10 minutes
[7] = read-out: FGFR1 IC50, pre-incubated for 4 hours

Sequence of FGFR1 (P11362 22-822): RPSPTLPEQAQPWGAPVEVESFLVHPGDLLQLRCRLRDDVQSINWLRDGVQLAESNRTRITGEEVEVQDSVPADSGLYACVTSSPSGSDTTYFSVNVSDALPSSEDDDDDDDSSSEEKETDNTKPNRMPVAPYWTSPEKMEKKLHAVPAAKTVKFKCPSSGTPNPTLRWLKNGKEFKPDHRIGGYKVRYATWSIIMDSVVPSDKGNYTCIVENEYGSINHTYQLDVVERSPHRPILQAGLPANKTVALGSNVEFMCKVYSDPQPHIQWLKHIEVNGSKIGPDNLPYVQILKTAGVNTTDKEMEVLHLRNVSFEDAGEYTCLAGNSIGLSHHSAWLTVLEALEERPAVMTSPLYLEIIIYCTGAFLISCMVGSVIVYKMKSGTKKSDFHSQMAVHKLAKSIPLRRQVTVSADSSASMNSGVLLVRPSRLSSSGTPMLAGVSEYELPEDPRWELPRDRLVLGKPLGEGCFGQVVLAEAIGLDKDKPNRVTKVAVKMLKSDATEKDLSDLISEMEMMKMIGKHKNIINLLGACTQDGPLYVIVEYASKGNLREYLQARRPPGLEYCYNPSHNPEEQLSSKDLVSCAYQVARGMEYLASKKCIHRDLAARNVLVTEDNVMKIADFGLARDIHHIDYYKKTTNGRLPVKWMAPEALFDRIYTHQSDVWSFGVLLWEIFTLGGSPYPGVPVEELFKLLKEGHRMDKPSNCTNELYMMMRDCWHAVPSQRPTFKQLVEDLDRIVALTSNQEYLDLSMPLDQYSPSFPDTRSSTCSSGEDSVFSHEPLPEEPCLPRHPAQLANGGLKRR
Sequence of FGFR2 (P21802 22-821): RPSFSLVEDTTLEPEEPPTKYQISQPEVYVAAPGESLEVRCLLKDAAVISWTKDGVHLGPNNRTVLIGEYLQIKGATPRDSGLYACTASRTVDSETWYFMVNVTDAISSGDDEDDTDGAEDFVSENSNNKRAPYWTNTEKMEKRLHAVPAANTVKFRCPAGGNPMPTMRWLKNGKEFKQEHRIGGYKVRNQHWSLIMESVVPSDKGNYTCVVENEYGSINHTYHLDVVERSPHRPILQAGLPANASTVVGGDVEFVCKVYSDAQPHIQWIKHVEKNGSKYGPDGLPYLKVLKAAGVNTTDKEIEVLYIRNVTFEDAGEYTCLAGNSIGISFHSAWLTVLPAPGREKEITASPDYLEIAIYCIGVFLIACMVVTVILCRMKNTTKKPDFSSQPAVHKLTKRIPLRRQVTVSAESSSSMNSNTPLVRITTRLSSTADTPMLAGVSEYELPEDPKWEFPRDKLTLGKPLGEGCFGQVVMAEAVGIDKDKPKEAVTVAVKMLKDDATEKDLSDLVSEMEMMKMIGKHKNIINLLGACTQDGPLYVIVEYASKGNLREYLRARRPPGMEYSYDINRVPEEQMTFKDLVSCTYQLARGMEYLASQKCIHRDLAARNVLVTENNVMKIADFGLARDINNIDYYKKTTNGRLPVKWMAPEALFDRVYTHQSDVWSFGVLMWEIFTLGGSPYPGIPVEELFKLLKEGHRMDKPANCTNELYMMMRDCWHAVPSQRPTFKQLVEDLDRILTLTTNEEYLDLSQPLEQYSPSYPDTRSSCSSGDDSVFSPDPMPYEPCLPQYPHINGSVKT
Sequence of FGFR3 enzyme (P22607 23-806): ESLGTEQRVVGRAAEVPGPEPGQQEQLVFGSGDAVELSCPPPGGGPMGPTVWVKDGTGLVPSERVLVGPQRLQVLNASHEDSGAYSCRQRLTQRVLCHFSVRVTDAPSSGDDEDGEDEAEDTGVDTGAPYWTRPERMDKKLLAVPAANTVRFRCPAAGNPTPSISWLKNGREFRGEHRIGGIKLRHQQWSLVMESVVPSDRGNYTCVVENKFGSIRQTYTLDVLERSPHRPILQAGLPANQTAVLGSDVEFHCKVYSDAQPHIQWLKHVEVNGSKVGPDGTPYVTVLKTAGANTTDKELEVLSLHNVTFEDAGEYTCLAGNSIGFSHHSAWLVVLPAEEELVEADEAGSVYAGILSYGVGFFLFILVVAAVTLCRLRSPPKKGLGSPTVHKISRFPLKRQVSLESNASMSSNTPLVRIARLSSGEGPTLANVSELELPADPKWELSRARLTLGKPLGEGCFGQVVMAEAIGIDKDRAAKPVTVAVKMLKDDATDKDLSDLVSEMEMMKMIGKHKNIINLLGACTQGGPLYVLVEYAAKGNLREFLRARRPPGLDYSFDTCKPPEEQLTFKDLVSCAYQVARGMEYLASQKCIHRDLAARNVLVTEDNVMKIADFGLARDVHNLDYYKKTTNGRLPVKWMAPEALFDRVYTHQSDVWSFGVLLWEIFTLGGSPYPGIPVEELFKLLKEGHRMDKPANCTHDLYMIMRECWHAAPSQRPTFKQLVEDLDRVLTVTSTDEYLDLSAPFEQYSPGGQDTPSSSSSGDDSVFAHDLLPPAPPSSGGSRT
Sequence of FGFR4 (P22455 22-802): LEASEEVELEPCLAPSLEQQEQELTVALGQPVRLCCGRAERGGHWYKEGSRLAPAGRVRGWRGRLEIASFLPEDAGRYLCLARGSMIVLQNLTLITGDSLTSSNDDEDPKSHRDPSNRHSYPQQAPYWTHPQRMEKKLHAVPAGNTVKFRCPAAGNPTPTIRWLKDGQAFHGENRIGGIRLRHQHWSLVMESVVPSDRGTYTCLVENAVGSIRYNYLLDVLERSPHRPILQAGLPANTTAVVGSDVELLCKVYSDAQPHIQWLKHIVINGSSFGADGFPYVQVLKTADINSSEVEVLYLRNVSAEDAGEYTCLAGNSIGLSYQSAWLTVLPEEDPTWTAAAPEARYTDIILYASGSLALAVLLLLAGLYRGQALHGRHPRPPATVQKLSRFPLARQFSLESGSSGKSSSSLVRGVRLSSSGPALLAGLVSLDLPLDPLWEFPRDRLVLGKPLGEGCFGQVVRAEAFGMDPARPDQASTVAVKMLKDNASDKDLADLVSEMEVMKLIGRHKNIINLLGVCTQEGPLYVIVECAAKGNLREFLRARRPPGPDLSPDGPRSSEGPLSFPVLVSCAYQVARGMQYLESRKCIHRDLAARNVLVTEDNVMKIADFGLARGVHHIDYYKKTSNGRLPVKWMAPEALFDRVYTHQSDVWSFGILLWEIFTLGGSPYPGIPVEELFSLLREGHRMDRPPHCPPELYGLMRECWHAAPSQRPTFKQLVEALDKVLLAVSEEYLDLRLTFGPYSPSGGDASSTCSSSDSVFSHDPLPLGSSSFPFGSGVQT

SMILES | IC50 ([1]; pre-incubated for 4 hours) [nM] | FGFR1/FGFR3 IC50 ratio ([2]; pre-incubated for 4 hours) | FGFR4/FGFR3 IC50 ratio ([2]; pre-incubated for 4 hours) | IC50 ([2]; pre-incubated for 4 hours) [nM] | IC50 ([3]; pre-incubated for 4 hours) [nM] | IC50 [4, 5] [nM] | IC50 [1, 6] [nM] | IC50 [2, 6] [nM] | IC50 [3, 6] [nM] | IC50 ([4]; FGFR1 IC50 (nM), pre-incubated for 5 to 10 minutes) [nM] | IC50 [4, 7] [nM]
COc1cc(OC)c(F)c(N2Cc3cnc(-c4cn(C)nc4C)cc3N(c3ccc4ccncc4c3)C2=O)c1F [Example 63, 3-(2,6-difluoro-3,5-dimethoxyphenyl)-7-(1,3-dimethyl-1H-pyrazol-4-yl)-1-(isoquinolin-7-yl)-3,4-dihydropyrido[4,3-d]pyrimidin-2(1H)-one] | 10 to 30 | >10 | >5 | < 10 | 30 to 200 | 30 to 200 |  |  |  |  | 
COc1cc(OC)c(F)c(N2Cc3cnc(-c4cn(C)nc4C)cc3N(Cc3ccc4c(c3)nnn4C)C2=O)c1F [Example 118, 3-(2,6-difluoro-3,5-dimethoxyphenyl)-7-(1,3-dimethyl-1H-pyrazol-4-yl)-1-((1-methyl-1H-benzo[d][1,2,3]triazol-5-yl)methyl)-3,4-dihydropyrido[4,3-d]pyrimidin-2(1H)-one] |  |  |  |  |  |  | 10 to 30 | 10 to 30 | 30 to 200 | 30 to 200 | 
CNC(=O)c1ccc(-c2cc3c(cn2)CN(c2c(F)c(OC)cc(OC)c2F)C(=O)C32CC2)cn1 [Example 18, 5-(2′-(2,6-difluoro-3,5-dimethoxyphenyl)-3′-oxo-2′,3′-dihydro-1′H-spiro[cyclopropane-1,4′-[2,7]naphthyridine]-6′-yl)-N-methylpicolinamide] | < 10 | >5 |  | < 10 | 10 to 30 | 10 to 30 |  |  |  |  | 
COc1cc(OC)c(F)c(N2Cc3cnc(-c4cn(C)nc4C)cc3N(Cc3csc(C)n3)C2=O)c1F [Example 95, 3-(2,6-difluoro-3,5-dimethoxyphenyl)-7-(1,3-dimethyl-1H-pyrazol-4-yl)-1-((2-methylthiazol-4-yl)methyl)-3,4-dihydropyrido[4,3-d]pyrimidin-2(1H)-one] | < 10 | >5 | >10 | < 10 | 30 to 200 | 10 to 30 |  |  |  |  | 
CCN1C(=O)N(c2c(F)c(OC)cc(OC)c2F)Cc2cnc(-c3cn(CC(=O)N4CCOCC4)nc3C)cc21 [Example 51, 3-(2,6-difluoro-3,5-dimethoxyphenyl)-1-ethyl-7-(3-methyl-1-(2-morpholino-2-oxoethyl)-1H-pyrazol-4-yl)-3,4-dihydropyrido[4,3-d]pyrimidin-2(1H)-one] | 30 to 200 | >1 | >1 | 30 to 200 | > 200 |  |  |  |  |  | > 200
COc1cc(OC)c(F)c(N2Cc3cnc(-c4cn(C)nc4C)cc3N(c3ccc(-n4cccn4)cc3)C2=O)c1F [Example 77, 1-(4-(1H-pyrazol-1-yl)phenyl)-3-(2,6-difluoro-3,5-dimethoxyphenyl)-7-(1,3-dimethyl-1H-pyrazol-4-yl)-3,4-dihydropyrido[4,3-d]pyrimidin-2(1H)-one] | < 10 | >5 | >10 | < 10 | 30 to 200 | 10 to 30 |  |  |  |  | 
COc1cc(OC)c(F)c(N2Cc3cnc(-c4cn(C)nc4C)cc3N(c3ccc(F)cc3)C2=O)c1F [Example 40, 3-(2,6-difluoro-3,5-dimethoxyphenyl)-7-(1,3-dimethyl-1H-pyrazol-4-yl)-1-(4-fluorophenyl)-3,4-dihydropyrido[4,3-d]pyrimidin-2(1H)-one] | < 10 | >10 | >10 | < 10 | 30 to 200 | 30 to 200 |  |  |  |  | 
COc1cc(OC)c(F)c(N2Cc3cnc(-c4cn(C5CCS(=O)(=O)C5)nc4C)cc3C3(CC3)C2=O)c1F (stereo not drawn) [Example 54, 2′-(2,6-difluoro-3,5-dimethoxyphenyl)-6′-[1-(1,1-dioxidotetrahydro-3-thienyl)-3-methyl-1H-pyrazol-4-yl]-1′,2′-dihydro-3′H-spiro[cyclopropane-1,4′-[2,7]naphthyridin]-3′-one] | < 10 | >5 | >1 | < 10 | 10 to 30 | 30 to 200 |  |  |  |  | 
COc1cc(OC)c(F)c(N2Cc3cnc(-c4cn(C)nc4C)cc3N(c3ccc(C#N)cn3)C2=O)c1F [Example 79, 6-(3-(2,6-difluoro-3,5-dimethoxyphenyl)-7-(1,3-dimethyl-1H-pyrazol-4-yl)-2-oxo-3,4-dihydropyrido[4,3-d]pyrimidin-1(2H)-yl)nicotinonitrile] | < 10 | >5 | >3 | < 10 | 30 to 200 | 30 to 200 |  |  |  |  | 
COc1cc(OC)c(F)c(N2Cc3cnc(-c4ccc(C5(C#N)CCC5)nc4)cc3N(c3cnn(C)c3)C2=O)c1F [Example 188, 1-{5-[3-(2,6-difluoro-3,5-dimethoxyphenyl)-1-(1-methyl-1H-pyrazol-4-yl)-2-oxo-1,2,3,4-tetrahydropyrido[4,3-d]pyrimidin-7-yl]pyridin-2-yl}cyclobutanecarbonitrile] | 10 to 30 | >5 | >5 | 10 to 30 | 30 to 200 | 30 to 200 |  |  |  |  | 
COc1cc(OC)c(F)c(N2Cc3cnc(-c4cn(C)nc4C)cc3N(c3cccc(-c4cnnn4C)c3)C2=O)c1F [Example 89, 3-(2,6-difluoro-3,5-dimethoxyphenyl)-7-(1,3-dimethyl-1H-pyrazol-4-yl)-1-(3-(1-methyl-1H-1,2,3-triazol-5-yl)phenyl)-3,4-dihydropyrido[4,3-d]pyrimidin-2(1H)-one] | < 10 | >5 | >10 | < 10 | 30 to 200 | 10 to 30 |  |  |  |  | 

Second part, the compound after the results:

IC50 ([1]; pre-incubated for 4 hours) [nM] | FGFR1/FGFR3 IC50 ratio ([2]; pre-incubated for 4 hours) | FGFR4/FGFR3 IC50 ratio ([2]; pre-incubated for 4 hours) | IC50 ([2]; pre-incubated for 4 hours) [nM] | IC50 ([3]; pre-incubated for 4 hours) [nM] | IC50 [4, 5] [nM] | IC50 [1, 6] [nM] | IC50 [2, 6] [nM] | IC50 [3, 6] [nM] | IC50 ([4]; FGFR1 IC50 (nM), pre-incubated for 5 to 10 minutes) [nM] | IC50 [4, 7] [nM] | SMILES
10 to 30 | >3 | >3 | 10 to 30 | 30 to 200 | 30 to 200 |  |  |  |  |  | COc1cc(OC)c(F)c(N2Cc3cnc(-c4cn(CCN(C)C)nc4C)cc3C3(CC3)C2=O)c1F [Example 164, 2′-(2,6-difluoro-3,5-dimethoxyphenyl)-6′-(1-(2-(dimethylamino)ethyl)-3-methyl-1H-pyrazol-4-yl)-1′H-spiro[cyclopropane-1,4′-[2,7]naphthyridin]-3′(2′H)-one]
< 10 | >5 | >5 | < 10 | 10 to 30 | 10 to 30 |  |  |  |  |  | CCN1C(=O)N(c2c(F)c(OC)cc(OC)c2F)Cc2cnc(-c3ccc(C(N)=O)nc3)cc21 [Example 184, 5-(3-(2,6-difluoro-3,5-dimethoxyphenyl)-1-ethyl-2-oxo-1,2,3,4-tetrahydropyrido[4,3-d]pyrimidin-7-yl)picolinamide]
< 10 | >3 | >3 | < 10 | 10 to 30 |  |  |  |  |  | < 10 | COc1cc(OC)c(F)c(N2Cc3cnc(-c4cnn(CC5CN(C(C)=O)C5)c4)cc3C3(CC3)C2=O)c1F [Example 167, 6′-(1-((1-acetylazetidin-3-yl)methyl)-1H-pyrazol-4-yl)-2′-(2,6-difluoro-3,5-dimethoxyphenyl)-1′H-spiro[cyclopropane-1,4′-[2,7]naphthyridin]-3′(2′H)-one]
< 10 | >5 | >3 | < 10 | 10 to 30 | 30 to 200 |  |  |  |  |  | CCn1cc(-c2cc3c(cn2)CN(c2c(F)c(OC)cc(OC)c2F)C(=O)C32CC2)c(C)n1 [Example 158, 2′-(2,6-difluoro-3,5-dimethoxyphenyl)-6′-(1-ethyl-3-methyl-1H-pyrazol-4-yl)-1′H-spiro[cyclopropane-1,4′-[2,7]naphthyridin]-3′(2′H)-one]
< 10 | >5 | >10 | < 10 | 30 to 200 | 30 to 200 |  |  |  |  |  | COc1cc(OC)c(F)c(N2Cc3cnc(-c4ccc(C5(C#N)CCC5)nc4)cc3N(c3ccncn3)C2=O)c1F [Example 135, 1-(5-(3-(2,6-difluoro-3,5-dimethoxyphenyl)-2-oxo-1-(pyrimidin-4-yl)-1,2,3,4-tetrahydropyrido[4,3-d]pyrimidin-7-yl)pyridin-2-yl)cyclobutanecarbonitrile]
< 10 | >5 | >3 | < 10 | 10 to 30 | 10 to 30 |  |  |  |  |  | COc1cc(OC)c(F)c(N2Cc3cnc(-c4cnn(CCN5CCC(OC)C5)c4)cc3C3(CC3)C2=O)c1F (stereo not drawn) [Example 161, 2′-(2,6-difluoro-3,5-dimethoxyphenyl)-6′-(1-(2-(3-methoxypyrrolidin-1-yl)ethyl)-1H-pyrazol-4-yl)-1′H-spiro[cyclopropane-1,4′-[2,7]naphthyridin]-3′(2′H)-one]
< 10 | >10 | >5 | < 10 | 10 to 30 | 10 to 30 |  |  |  |  |  | CCN1C(=O)N(c2c(F)c(OC)cc(OC)c2F)Cc2cnc(-c3ccc(C(=O)NC4CC4)nc3)cc21 [Example 176, N-cyclopropyl-5-(3-(2,6-difluoro-3,5-dimethoxyphenyl)-1-ethyl-2-oxo-1,2,3,4-tetrahydropyrido[4,3-d]pyrimidin-7-yl)picolinamide]
